Experimental data: patent US20090304692A1, “TRIAZINE COMPOUNDS AS PI3 KINASE AND MTOR INHIBITORS” (Wyeth, priority 2008, published 2009)
“And” between values parts separate entries of the source, which are not always exact repeats. Equal entries are not always repeated. Where two headings read alike, the source gives them in different places.

What was measured:
[1] = target: Human mTOR (FLAG-TOR) (Homo sapiens, UniProt P42345); assay: mTOR kinase assay (DELFIA format, purified enzyme); type: biochemical; conditions: read-out: IC50 mTOR
Chain of Human mTOR (FLAG-TOR) (P42345 1360-2549 limits assumed): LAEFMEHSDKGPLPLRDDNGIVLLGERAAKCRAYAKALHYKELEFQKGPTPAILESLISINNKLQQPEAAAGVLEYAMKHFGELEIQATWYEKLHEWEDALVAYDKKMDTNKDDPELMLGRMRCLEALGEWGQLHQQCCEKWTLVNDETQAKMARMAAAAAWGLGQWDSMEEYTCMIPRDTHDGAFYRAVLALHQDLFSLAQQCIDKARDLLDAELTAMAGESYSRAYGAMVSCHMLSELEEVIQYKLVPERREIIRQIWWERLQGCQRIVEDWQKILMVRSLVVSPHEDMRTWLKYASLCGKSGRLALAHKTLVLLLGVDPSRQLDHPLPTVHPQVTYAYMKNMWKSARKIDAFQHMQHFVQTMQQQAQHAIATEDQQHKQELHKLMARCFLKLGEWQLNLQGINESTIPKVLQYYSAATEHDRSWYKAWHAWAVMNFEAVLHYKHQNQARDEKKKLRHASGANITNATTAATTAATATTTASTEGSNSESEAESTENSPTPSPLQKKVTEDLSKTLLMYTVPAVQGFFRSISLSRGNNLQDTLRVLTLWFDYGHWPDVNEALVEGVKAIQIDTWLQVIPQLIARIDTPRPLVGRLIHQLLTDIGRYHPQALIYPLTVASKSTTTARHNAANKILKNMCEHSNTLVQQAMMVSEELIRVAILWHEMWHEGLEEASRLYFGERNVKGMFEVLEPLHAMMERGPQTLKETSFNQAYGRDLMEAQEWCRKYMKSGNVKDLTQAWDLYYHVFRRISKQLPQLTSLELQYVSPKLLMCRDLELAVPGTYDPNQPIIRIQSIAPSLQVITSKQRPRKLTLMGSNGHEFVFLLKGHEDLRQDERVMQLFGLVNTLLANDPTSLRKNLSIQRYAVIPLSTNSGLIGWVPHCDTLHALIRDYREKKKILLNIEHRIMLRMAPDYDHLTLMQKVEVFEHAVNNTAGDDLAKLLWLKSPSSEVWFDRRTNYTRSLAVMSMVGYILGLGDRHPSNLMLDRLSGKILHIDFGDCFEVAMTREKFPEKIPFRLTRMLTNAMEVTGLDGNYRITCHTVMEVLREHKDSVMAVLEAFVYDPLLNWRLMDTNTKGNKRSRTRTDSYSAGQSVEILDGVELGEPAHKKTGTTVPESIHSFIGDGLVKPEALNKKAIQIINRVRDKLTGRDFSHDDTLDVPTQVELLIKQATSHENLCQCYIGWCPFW

[2] = system: human prostate LNCap tumor cell line; assay: In vitro cell culture growth assay (MTS), LNCap; conditions: Homo sapiens, LNCaP, 72 h, read-out: IC50 LNCap
[3] = system: human prostate PC3-mm2 tumor cell line; assay: In vitro cell culture growth assay (MTS), PC3-mm2; type: cell-based; conditions: Homo sapiens, PC3MM2, 72 h, MTS cell growth assay, three days after drug treatment, read-out: IC50 PC3-mm2
[4] = target: PI3K-γ (Homo sapiens, UniProt P48736); assay: PI3K-gamma fluorescence polarization assay; conditions: read-out: IC50 PI3Kγ
[5] = target: PI3K-α (Homo sapiens, UniProt P42336); assay: PI3K-alpha fluorescence polarization assay; conditions: read-out: IC50 PI3Kα
[6] = system: human breast MDA-MB-361 tumor cell line; assay: In vitro cell culture growth assay (MTS), MDA-MB-361; type: cell-based; conditions: Homo sapiens, MDA-MB-361, 72 h; MTS cell growth assay, three days after drug treatment; read-out: IC50 MDA-MB-361
[7] = target: human SMG-1 (hSMG-1) (Homo sapiens, UniProt Q96Q15); assay: hSMG-1 kinase assay (DELFIA); type: biochemical
Chain of human SMG-1 (hSMG-1) (Q96Q15 whole entry): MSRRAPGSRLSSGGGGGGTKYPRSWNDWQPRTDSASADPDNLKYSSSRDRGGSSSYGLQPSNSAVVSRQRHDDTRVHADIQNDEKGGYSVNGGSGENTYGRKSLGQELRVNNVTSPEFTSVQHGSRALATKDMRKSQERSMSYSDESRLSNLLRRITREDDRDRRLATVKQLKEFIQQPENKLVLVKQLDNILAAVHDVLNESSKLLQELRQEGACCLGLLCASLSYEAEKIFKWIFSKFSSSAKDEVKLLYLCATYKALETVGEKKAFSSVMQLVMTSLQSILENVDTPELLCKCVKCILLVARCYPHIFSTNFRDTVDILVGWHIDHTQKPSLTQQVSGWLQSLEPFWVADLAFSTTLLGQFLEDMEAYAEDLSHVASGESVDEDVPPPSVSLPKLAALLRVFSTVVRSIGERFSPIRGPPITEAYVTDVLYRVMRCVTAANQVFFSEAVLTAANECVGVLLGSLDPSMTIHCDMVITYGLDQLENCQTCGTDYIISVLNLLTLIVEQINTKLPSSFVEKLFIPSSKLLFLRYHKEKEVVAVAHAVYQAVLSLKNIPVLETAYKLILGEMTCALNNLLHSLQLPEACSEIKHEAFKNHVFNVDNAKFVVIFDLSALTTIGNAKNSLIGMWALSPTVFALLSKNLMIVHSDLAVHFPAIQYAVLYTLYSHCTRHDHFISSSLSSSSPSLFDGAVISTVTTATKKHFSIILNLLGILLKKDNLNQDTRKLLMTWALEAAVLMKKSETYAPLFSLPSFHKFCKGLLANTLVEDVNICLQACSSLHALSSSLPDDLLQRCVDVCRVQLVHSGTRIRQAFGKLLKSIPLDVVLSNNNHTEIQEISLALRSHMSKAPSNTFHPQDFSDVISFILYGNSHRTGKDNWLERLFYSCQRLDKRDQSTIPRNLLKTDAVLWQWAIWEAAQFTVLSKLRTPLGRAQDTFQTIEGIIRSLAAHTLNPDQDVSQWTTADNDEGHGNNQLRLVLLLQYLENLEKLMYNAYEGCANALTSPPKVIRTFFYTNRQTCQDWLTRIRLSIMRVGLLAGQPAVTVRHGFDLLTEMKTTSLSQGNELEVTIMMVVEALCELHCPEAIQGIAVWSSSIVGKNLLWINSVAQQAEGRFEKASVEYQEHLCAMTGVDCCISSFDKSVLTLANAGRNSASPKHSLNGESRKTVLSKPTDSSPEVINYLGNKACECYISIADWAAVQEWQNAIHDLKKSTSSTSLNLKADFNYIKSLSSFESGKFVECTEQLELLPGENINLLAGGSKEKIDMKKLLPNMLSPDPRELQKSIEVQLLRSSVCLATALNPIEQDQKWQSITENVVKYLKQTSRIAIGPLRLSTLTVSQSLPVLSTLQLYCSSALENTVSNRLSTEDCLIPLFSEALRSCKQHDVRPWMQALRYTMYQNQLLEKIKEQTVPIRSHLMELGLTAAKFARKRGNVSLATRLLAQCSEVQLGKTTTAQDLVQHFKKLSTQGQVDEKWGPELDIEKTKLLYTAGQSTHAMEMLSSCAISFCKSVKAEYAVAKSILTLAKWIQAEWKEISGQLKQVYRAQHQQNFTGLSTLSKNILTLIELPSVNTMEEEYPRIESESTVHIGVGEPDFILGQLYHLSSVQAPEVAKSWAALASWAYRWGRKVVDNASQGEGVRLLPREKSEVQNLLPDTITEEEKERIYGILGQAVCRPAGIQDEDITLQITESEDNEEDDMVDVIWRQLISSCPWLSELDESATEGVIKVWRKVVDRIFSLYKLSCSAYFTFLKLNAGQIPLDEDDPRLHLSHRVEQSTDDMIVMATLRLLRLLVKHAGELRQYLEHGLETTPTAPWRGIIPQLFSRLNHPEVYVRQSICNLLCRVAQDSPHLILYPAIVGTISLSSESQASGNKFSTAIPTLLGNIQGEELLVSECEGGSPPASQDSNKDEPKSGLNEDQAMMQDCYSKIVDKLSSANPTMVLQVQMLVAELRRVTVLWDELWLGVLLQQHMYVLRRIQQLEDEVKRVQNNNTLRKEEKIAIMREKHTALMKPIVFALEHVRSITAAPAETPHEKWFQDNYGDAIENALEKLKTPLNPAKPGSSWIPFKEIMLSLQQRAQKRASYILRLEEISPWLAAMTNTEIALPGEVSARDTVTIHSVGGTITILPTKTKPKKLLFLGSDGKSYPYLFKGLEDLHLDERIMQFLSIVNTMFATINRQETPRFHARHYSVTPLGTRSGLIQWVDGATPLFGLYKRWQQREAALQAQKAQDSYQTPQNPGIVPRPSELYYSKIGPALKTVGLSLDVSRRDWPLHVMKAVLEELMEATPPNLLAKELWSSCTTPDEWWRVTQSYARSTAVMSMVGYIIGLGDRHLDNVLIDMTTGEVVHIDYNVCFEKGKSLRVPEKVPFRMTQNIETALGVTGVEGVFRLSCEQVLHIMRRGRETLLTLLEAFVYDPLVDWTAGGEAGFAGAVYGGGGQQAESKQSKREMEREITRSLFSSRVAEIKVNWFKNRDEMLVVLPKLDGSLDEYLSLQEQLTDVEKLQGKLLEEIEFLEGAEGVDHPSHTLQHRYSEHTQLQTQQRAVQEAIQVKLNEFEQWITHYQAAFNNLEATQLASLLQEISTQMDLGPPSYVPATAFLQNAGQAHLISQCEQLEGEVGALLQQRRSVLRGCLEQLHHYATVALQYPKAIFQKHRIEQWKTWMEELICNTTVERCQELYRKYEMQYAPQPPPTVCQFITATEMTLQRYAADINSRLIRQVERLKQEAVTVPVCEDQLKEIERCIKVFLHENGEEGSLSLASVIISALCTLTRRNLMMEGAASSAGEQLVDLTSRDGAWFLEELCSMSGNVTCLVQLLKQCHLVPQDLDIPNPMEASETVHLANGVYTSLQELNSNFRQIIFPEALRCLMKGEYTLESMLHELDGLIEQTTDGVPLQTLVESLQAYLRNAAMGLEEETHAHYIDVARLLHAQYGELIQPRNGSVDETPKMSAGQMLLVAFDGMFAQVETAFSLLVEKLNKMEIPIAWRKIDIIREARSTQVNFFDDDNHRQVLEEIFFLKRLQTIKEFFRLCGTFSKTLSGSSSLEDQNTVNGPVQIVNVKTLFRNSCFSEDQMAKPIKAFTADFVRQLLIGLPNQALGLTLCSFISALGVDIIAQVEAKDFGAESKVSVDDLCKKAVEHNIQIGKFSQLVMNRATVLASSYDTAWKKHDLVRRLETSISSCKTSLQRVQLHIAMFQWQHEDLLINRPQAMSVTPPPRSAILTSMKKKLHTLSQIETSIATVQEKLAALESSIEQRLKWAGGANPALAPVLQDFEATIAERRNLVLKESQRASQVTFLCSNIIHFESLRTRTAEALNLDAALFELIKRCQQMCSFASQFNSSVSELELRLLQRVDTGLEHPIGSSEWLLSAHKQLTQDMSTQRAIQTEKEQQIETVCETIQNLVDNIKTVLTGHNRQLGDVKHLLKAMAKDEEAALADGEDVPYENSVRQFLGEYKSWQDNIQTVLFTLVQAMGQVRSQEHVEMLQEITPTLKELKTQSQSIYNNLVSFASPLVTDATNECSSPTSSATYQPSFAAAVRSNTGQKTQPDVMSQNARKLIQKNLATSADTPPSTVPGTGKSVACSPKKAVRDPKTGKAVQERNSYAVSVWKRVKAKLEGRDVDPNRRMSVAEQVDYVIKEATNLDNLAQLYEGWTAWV

Row | IC50 [1] | IC50 [2] | IC50 [4] | IC50 [5] | IC50 [7] | SMILES | further results
1 | 0.39 nM and 0.38 nM | 38 nM | 41 nM | 12 nM | – | O=C(Nc1ccncc1)Nc1ccc(-c2nc(N3CCOCC3)nc(N3C(CO)CCC3CO)n2)cc1 (centres unmarked) [Example 268, 1-(4-{4-[2,5-bis(hydroxymethyl)pyrrolidin-1-yl]-6-morpholin-4-yl-1,3,5-triazin-2-yl}phenyl)-3-pyridin-4-ylurea] | IC50 ([3]; PC3-mm2 cells): 107 nM; IC50 [3]: 107 nM; IC50 ([4]; listed as 728): 47 nM; IC50 ([5]; listed as 728): 10.5 nM; IC50 [6]: 59 nM
2 | 17 nM | – | – | – | 510 nM | CNC(=O)Nc1ccc(-c2nc(-c3ccc(NC(=O)Nc4cccnc4)cc3)nc(N3C(C)COCC3C)n2)cc1 (centres unmarked) [Example 463, 1-{4-[4-(3,5-dimethylmorpholin-4-yl)-6-{4-[(methylcarbamoyl)amino]phenyl}-1,3,5-triazin-2-yl]phenyl}-3-pyridin-3-ylurea] | –
3 | 1 nM | – | – | – | 5 nM | CNC(=O)Nc1ccc(-c2nc(-c3ccc(NC(=O)Nc4cccc(C(N)=O)c4)cc3)nc(N3CC4CCC(C3)O4)n2)cc1 [Example 465, 3-[({4-[4-{4-[(methylcarbamoyl)amino]phenyl}-6-(8-oxa-3-azabicyclo[3.2.1]oct-3-yl)-1,3,5-triazin-2-yl]phenyl}carbamoyl)amino]benzamide] | –
4 | 23 nM | 2800 nM | – | – | 130 nM | CNC(=O)Nc1ccc(-c2nc(-c3ccc(NC(=O)Nc4cccc(C(N)=O)c4)cc3)nc(N3C(C)COCC3C)n2)cc1 (centres unmarked) [Example 469, 3-[({4-[4-(3,5-dimethylmorpholin-4-yl)-6-{4-[(methylcarbamoyl)amino]phenyl}-1,3,5-triazin-2-yl]phenyl}carbamoyl)amino]benzamide] | –
5 | – | 130 nM | – | – | 5 nM | CNC(=O)Nc1ccc(-c2nc(-c3ccc(NC(=O)Nc4ccncc4)cc3)nc(N3CC4CCC(C3)O4)n2)cc1 [Example 471, 1-methyl-3-{4-[4-(8-oxa-3-azabicyclo[3.2.1]oct-3-yl)-6-{4-[(pyridin-4-ylcarbamoyl)amino]phenyl}-1,3,5-triazin-2-yl]phenyl}urea] | –
6 | 35 nM | – | – | – | 3650 nM | O=C(Nc1ccc(-c2nc(N3CCOCC3)nc(N3CCOCC3)n2)cc1)C(F)F [Example 473, N-[4-(4,6-dimorpholin-4-yl-1,3,5-triazin-2-yl)phenyl]-2,2-difluoroacetamide] | –
7 | 5 nM | – | – | – | 19 nM | CNC(=O)Nc1ccc(-c2nc(N3CCOCC3)nc(N3CCOCC3)n2)cc1 [Example 476, 1-[4-(4,6-dimorpholin-4-yl-1,3,5-triazin-2-yl)phenyl]-3-methylurea] | –
8 | 14000 nM | – | – | – | 9250 nM | O=C(Cc1ccc(-c2nc(N3CCOCC3)nc(N3CCOCC3)n2)cc1)Nc1cccnc1 [Example 477, 2-[4-(4,6-dimorpholin-4-yl-1,3,5-triazin-2-yl)phenyl]-N-pyridin-3-ylacetamide] | –
9 | 0.405 nM | 60 nM | 1080 nM | 102 nM | – | O=C(Nc1ccncc1)Nc1ccc(-c2nc(N3CC4CCC(C3)O4)nc(N3[C@H](CO)CC[C@@H]3CO)n2)cc1 [Example 667, 1-(4-{4-[(2R,5S)-2,5-bis(hydroxymethyl)pyrrolidin-1-yl]-6-(8-oxa-3-azabicyclo[3.2.1]oct-3-yl)-1,3,5-triazin-2-yl}phenyl)-3-pyridin-4-ylurea] | –

The next lines start with the compound.

Row | SMILES | IC50 [1] | IC50 [2] | IC50 [4] | IC50 [5] | IC50 [7] | further results
10 | O=C(Nc1ccncc1)Nc1ccc(-c2nc(C3CCOCC3)nc(N3CCOCC3)n2)cc1 [Example 101, 1-{4-[4-Morpholin-4-yl-6-(tetrahydro-pyran-4-yl)-[1,3,5]triazin-2-yl]-phenyl}-3-pyridin-4-yl-urea] | 0.44 nM | 3 nM | 33 nM | 6 nM | – | IC50 [3]: 37.3 nM; IC50 [6]: 32.7 nM
11 | NCCNc1ccc(NC(=O)Nc2ccc(-c3nc(N4C5CCC4COC5)nc(N4C5CCC4COC5)n3)cc2)cc1 [Example 461, 1-(4-(2-aminoethylamino)phenyl)-3-(4-(4,6-di(3-oxa-8-azabicyclo[3.2.1]octan-8-yl)-1,3,5-triazin-2-yl)phenyl)urea] | 1.1 nM | 68 nM | 4420 nM | 482 nM | – | –
12 | CNC(=O)Nc1ccc(-c2nc(-c3ccc(NC(=O)Nc4ccc(C(N)=O)cc4)cc3)nc(N3CC4CCC(C3)O4)n2)cc1 [Example 464, 4-[({4-[4-{4-[(methylcarbamoyl)amino]phenyl}-6-(8-oxa-3-azabicyclo[3.2.1]oct-3-yl)-1,3,5-triazin-2-yl]phenyl}carbamoyl)amino]benzamide] | 1 nM | – | – | – | 3 nM | –
13 | CNC(=O)Nc1ccc(-c2nc(-c3ccc(NC(=O)Nc4ccc(C(N)=O)cc4)cc3)nc(N3C(C)COCC3C)n2)cc1 (centres unmarked) [Example 470, 4-[({4-[4-(3,5-dimethylmorpholin-4-yl)-6-{4-[(methylcarbamoyl)amino]phenyl}-1,3,5-triazin-2-yl]phenyl}carbamoyl)amino]benzamide] | 7 nM | 1000 nM | – | – | 195 nM | –
14 | CNC(=O)Nc1ccc(-c2nc(-c3ccc(NC(=O)Nc4ccncc4)cc3)nc(N3C(C)COCC3C)n2)cc1 (centres unmarked) [Example 472, 1-{4-[4-(3,5-dimethylmorpholin-4-yl)-6-{4-[(methylcarbamoyl)amino]phenyl}-1,3,5-triazin-2-yl]phenyl}-3-pyridin-4-ylurea] | 35 nM | 3800 nM | – | – | 200 nM | –
15 | c1cc(-c2nc(N3CCOCC3)nc(N3CCOCC3)n2)ccc1NC1=NCCN1 [Example 474, N-[4-(4,6-dimorpholin-4-yl-1,3,5-triazin-2-yl)phenyl]-4,5-dihydro-1H-imidazol-2-amine] | 48 nM | – | – | – | 5650 nM | –
16 | c1cc(-c2nc(N3CCOCC3)nc(N3CCOCC3)n2)ccc1-c1nn[nH]n1 [Example 475, 2,4-dimorpholin-4-yl-6-[4-(2H-tetrazol-5-yl)phenyl]-1,3,5-triazine] | 18500 nM | – | – | – | > 20000 nM | –
17 | CC(C)c1nc(-c2ccc(NC(=O)Nc3ccc(-c4ccncc4)cc3)cc2)nc(N2CCOCC2)n1 [Example 489, 1-{4-[4-(1-methylethyl)-6-morpholin-4-yl-1,3,5-triazin-2-yl]phenyl}-3-(4-pyridin-4-ylphenyl)urea] | 2.2 nM | 4300 nM | 9040 nM | 3670 nM | – | –
18 | CN1CCN(CC(=O)Nc2ccc(NC(=O)Nc3ccc(-c4nc(N5CC6CCC(C5)O6)nc(N5CC6CCC(C5)O6)n4)cc3)cc2)CC1 [Example 509, N-[4-({[4-(4,6-di-8-oxa-3-azabicyclo[3.2.1]oct-3-yl-1,3,5-triazin-2-yl)phenyl]carbamoyl}amino)phenyl]-2-(4-methylpiperazin-1-yl)acetamide] | 0.45 nM | < 0.8 nM | 662 nM | 11.5 nM | – | –
19 | CN1CCN(c2ccc(NC(=O)Nc3ccc(-c4nc(N5CC6CCC(C5)O6)nc(N5[C@H](CO)CC[C@@H]5CO)n4)cc3)cc2)CC1 [Example 668, 1-(4-{4-[(2R,5S)-2,5-bis(hydroxymethyl)pyrrolidin-1-yl]-6-(8-oxa-3-azabicyclo[3.2.1]oct-3-yl)-1,3,5-triazin-2-yl}phenyl)-3-[4-(4-methylpiperazin-1-yl)phenyl]urea] | 0.56 nM | 0.8 nM | 625 nM | 122 nM | – | –
